As usually defined, the IC50 is the point on the concentration scale where inhibition reaches its midpoint.

Consider one compound from publication PMC8482806, “A Novel Blood-Brain Barrier-Permeable Chemotherapeutic Agent for the Treatment of Glioblastoma” (Cureus, 2021).

Bounds are passed on as bounds.

Data set [1] deals with phosphorylation of H2AX in U251 cells. The data set is described as follows: Phosphorylation of γ-H2AX assay (immunoblot), U251. The conditions noted are these: U251, 16 hours. It counts as cell-based, human. The protocol:
(§1) U251 or normal human astrocyte cells were plated in six-well plates and incubated with various concentrations of QBS10072S for 16 hours. Proteins were extracted from cells using cell lysis buffer (Cell Signaling Technologies, Danvers, MA) supplemented with proteinase and a phosSTOP phosphatase inhibitor cocktail (Sigma-Aldrich, St. Louis, MO). Proteins were separated by SDS-PAGE and transferred onto polyvinylidene difluoride membranes, which were then probed with primary antibodies followed by horseradish peroxidase-conjugated secondary antibody, and visualized by ECL (Thermo-Fischer, S. San Francisco, CA). Antibodies specific for γH2AX (#2577), LAT1 (#5347), and beta-actin (#4970) were obtained from Cell Signaling Technologies.
Background: Immunoblotting shows a protein as a band on a membrane.

Another data set concerns U87 cells. The data set is described as follows: WST1 cell viability assay, U87. Format: cell-based. The conditions noted are these: Homo sapiens, U-87 MG, read-out: LC50 (μM ± SD). How it is done:
In vitro activities of QBS10072S and temozolomide (TMZ) in U87 and U87-MGMT cells were assessed using the WST1 cell viability assay in 96-well plates in which 500/well of cells were plated in sextuplets for each condition. To avoid cell loss, the following washing and medium removing procedures were all done using a P200 pipet without vacuum aspiration. For QBS10072S treatment, cells were washed with PBS the next day and incubated with 50 μL of various concentrations of QBS10072S in PBS for 1 hour at 37°C. After incubation, 150 μL of growth medium was added to each well. The medium was subsequently changed every two days until day 7. For TMZ treatment, cells were treated with 100 μL of various concentrations of TMZ in a growth medium for 2 days. After incubation, cells were put back in a normal growth medium and continued culturing for five days. In the end, 10 μL of WST1 reagent was added to each well and incubated at 37°C for 4h before subjecting to plate reading at 450 nm and 690nm using an EnSpire multimode plate reader (PerkinElmer). Background (OD690nm) was subtracted and data were normalized to the control. LC50s were determined by non-linear regression using GraphPad Prism (GraphPad Software Inc., San Diego, California)
For orientation: Tetrazolium dyes change colour on reduction, which living cells bring about.

Data set [2] is described as follows: Cytotoxicity in normal human astrocytes (CellTiter-Glo). It counts as cell-based. The following applies: normal human astrocytes (NHA), read-out: LC50. In general terms: In ATP-based viability assays light output follows the ATP content of the culture.
Procedure: In vitro activity of QBS10072S was assessed using a modified clonogenic cell viability assay in 96-well clear-bottom plates. […] For GBM cell lines, 2000 cells/well were plated. On day 2 (GBM) or day 3 (LLC-PK1) after original plating, cells were washed twice with PBS and incubated with 50 μL of various concentrations of QBS10072S in PBS in at least quadruplicate. After 30 minutes at 37°C, 200 μL of growth medium was added to each well. Clonal populations were allowed to grow until the control wells (mock treatment) were near confluence (7 to 10 days). At this point, 170 μL media were removed and 60 μL CellTiter-Glo® (Promega, Madison, WI) were added to each well. Plates were placed on an orbital shaker for three minutes to lyse the cells and then incubated for an additional 10 minutes at RT to stabilize the luminescent signal. Luminescence was recorded using an EnSpire® Multimode Plate Reader (Perkin Elmer). Background (luminescence from wells incubated with 100 μM melphalan or lomustine) was subtracted and data were normalized to the control. EC50s were determined by non-linear regression using GraphPad Prism.
Cells were incubated with a titration of QBS10072S or melphalan and cell viability was measured by CellTiter-Glo. LC50 values for each compound were determined.
The test system of data set [3] is phosphorylation of H2AX in normal human astrocytes. The data set is described as follows: Phosphorylation of γ-H2AX assay (immunoblot), normal human astrocytes. Format: cell-based. The following applies: NHAs, basal LAT1 undetectable, 16 hours. How it is done:
as §1

In data set [4] the test system is breast cancer metastatic tumors. The arrangement: method as in PMID 34635566. The following applies: leptomeningeal metastatic disease model, BBB never disrupted; cited from earlier work.
In a further data set the test system is AM38 cells. The data set is described as follows: Cell viability assay (CellTiter-Glo), AM38. It counts as cell-based. The conditions noted are these: Homo sapiens, AM-38; Cell Line: AM38; read-out: LC50 (μM ± SD). The protocol:
In vitro activity of QBS10072S was assessed using a modified clonogenic cell viability assay in 96-well clear-bottom plates. For the LLC-PK1 inducible LAT1-expressing cell line, 1000 cells/well were plated and cells were treated with either butyrate alone (non-induced) or with both butyrate and doxycycline (induced) as described above. For GBM cell lines, 2000 cells/well were plated. On day 2 (GBM) or day 3 (LLC-PK1) after original plating, cells were washed twice with PBS and incubated with 50 μL of various concentrations of QBS10072S in PBS in at least quadruplicate. After 30 minutes at 37°C, 200 μL of growth medium was added to each well. Clonal populations were allowed to grow until the control wells (mock treatment) were near confluence (7 to 10 days). At this point, 170 μL media were removed and 60 μL CellTiter-Glo® (Promega, Madison, WI) were added to each well. Plates were placed on an orbital shaker for three minutes to lyse the cells and then incubated for an additional 10 minutes at RT to stabilize the luminescent signal. Luminescence was recorded using an EnSpire® Multimode Plate Reader (Perkin Elmer). Background (luminescence from wells incubated with 100 μM melphalan or lomustine) was subtracted and data were normalized to the control. EC50s were determined by non-linear regression using GraphPad Prism.

In the next data set the target is T1, hLAT1 (Homo sapiens, UniProt Q01650).
T1 construct: host or cells: LLC-PK1 (tetracycline-inducible, Invitrogen Gateway pT-REx System)
T1 sequence (Q01650 whole entry): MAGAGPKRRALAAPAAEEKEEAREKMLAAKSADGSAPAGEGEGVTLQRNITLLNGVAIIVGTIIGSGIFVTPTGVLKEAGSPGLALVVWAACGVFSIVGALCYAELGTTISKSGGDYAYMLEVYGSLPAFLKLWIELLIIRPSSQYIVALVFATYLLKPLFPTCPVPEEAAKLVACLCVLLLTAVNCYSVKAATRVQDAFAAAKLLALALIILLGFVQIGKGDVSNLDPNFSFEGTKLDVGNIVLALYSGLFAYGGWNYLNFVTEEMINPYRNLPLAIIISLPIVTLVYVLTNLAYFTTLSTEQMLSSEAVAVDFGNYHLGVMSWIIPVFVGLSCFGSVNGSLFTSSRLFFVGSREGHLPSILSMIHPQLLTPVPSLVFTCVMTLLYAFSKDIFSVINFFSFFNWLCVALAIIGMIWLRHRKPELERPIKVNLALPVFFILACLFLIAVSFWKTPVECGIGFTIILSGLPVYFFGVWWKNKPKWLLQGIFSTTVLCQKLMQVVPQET
T1 sequence (P08195 102-630 partner): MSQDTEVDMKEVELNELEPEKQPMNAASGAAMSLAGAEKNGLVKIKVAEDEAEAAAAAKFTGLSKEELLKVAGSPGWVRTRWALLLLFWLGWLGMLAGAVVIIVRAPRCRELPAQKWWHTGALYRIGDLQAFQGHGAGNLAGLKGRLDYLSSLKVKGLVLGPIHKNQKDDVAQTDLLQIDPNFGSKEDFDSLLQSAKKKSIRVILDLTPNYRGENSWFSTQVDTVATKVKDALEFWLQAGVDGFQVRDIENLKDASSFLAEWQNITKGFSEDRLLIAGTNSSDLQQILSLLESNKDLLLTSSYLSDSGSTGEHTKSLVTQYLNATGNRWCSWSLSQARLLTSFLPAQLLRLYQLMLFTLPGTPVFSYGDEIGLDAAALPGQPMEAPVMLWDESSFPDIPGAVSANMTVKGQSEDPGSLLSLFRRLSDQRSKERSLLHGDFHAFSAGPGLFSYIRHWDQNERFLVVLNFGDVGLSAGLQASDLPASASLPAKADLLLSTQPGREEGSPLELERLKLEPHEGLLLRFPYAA
The data set is described as follows: Substrate transport inhibition, [3H]-gabapentin uptake in LLC-PK1 cells expressing hLAT1. Format: cell-based. How it is done:
Substrate transport inhibition studies were conducted with LLC-PK1 cells inducibly expressing either hLAT1 or hLAT2. Cells were plated in growth media with 1 μg/mL doxycycline at 30,000 cells/well in 96-well plates. Sixteen hours after plating, cells were treated with butyrate at a final concentration of 5 mM. The following day, cells were washed with PBS and incubated in the presence or absence of various concentrations of QBS10072S with 30,000 cpm/well of either [3H]-gabapentin (LAT1) or [3H]-leucine (LAT2) in PBS for 15 minutes at room temperature. The non-specific cell-bound activity was determined by the addition of 5 mM unlabeled gabapentin (LAT1) or leucine (LAT2). Unincorporated radioactivity was removed, and cells were washed three times with ice-cold PBS. Cells were lysed by adding scintillation fluid to each well, and cell-associated radioactivity was determined via scintillation counting using a multichannel 96-well plate reader (MicroBeta Trilux, Perkin Elmer, Waltham, MA). Data were expressed as the percent of specific radioactivity uptake in wells with no compound added. LC50s were determined by non-linear curve-fitting using GraphPad Prism (San Diego, CA).

For the compound `Cc1ccc(N(CCCl)CCCl)cc1C[C@H](N)CC(=O)O` [QBS10072S, (+)-(3S)-amino-4-[5-[bis(2-chloroethyl)amino]-2-methyl-phenyl]butanoic acid], the “phosphorylation of H2AX” value in data set [1] is “dose-dependent phosphorylation of H2AX”. In addition, the CC50 with U87 cells was found to be 14.7 ± 5.3 µM; in the data set with AM38 cells, 14 ± 4 µM. Moreover, the CC50 at 30 min in data set [2] is greater than 10 µM. Further, the “DDR pathway activation (phospho-H2AX)” value in data set [3] is listed as “significantly lower DDR pathway activation”. Moreover, in data set [4], the “inhibition of tumor growth with intact BBB” value is reported as “still effective for inhibiting tumor growth”. In addition, on hLAT1 ([3H]-gabapentin, LLC-PK1 LAT1-expressing cells, 15 minutes at room temperature, read-out: IC50, inhibition of substrate transport (LAT1)), the IC50 amounted to 21 µM. Further, the “selectivity LAT1 vs. LAT2 in transport assays” value at hLAT1 (ratio of IC50s LAT2/LAT1) was determined as 50 fold.
